Reference: the NIST ThermoML archive (doi:10.1021/acs.jced.5b00813)

Key:
[1] = xn = mol fraction of the nth substance listed; conditions: 298.15 K, 100 kPa, Liquid, Vibrating tube method
[2] = excess molar enthalpy (molar enthalpy of mixing); xn = mol fraction of the nth substance listed; conditions: 298.15 K, 100 kPa, Liquid, Calvet calorimetry
[3] = 298.15 K; 100 kPa; Liquid; Vibrating tube method
[4] = refractive index (Na D-line) (dimensionless); conditions: 298.15 K; 101.33 kPa; Liquid; Standard Abbe refractometry

CC(C)CC(C)(C)C [2,2,4-trimethylpentane] + COC(C)=O
Conditions	mass density [kg/m3]
[1], x1 = 1	687.75

CCCC(=O)OC [methyl butanoate] + CC(C)CC(C)(C)C
Conditions	excess molar enthalpy [kJ/mol]	mass density [kg/m3]
[1], x2 = 0	–	892.34
[1], x2 = 0.0344	–	881.71
[1], x2 = 0.0633	–	873.2
[1], x2 = 0.1096	–	860.1
[1], x2 = 0.1334	–	853.55
[1], x2 = 0.1539	–	848
[1], x2 = 0.2013	–	835.7
[1], x2 = 0.2471	–	824.1
[1], x2 = 0.2981	–	811.9
[1], x2 = 0.3973	–	789.58
[1], x2 = 0.441	–	780.3
[1], x2 = 0.5431	–	760
[1], x2 = 0.5901	–	751.22
[1], x2 = 0.6801	–	735.3
[1], x2 = 0.7243	–	727.9
[1], x2 = 0.8239	–	712.2
[1], x2 = 0.8708	–	705.2
[1], x2 = 0.8863	–	703.02
[1], x2 = 0.9158	–	698.8
[1], x2 = 0.9816	–	689.84
[2], x2 = 0.0389	0.161	–
[2], x2 = 0.0858	0.332	–
[2], x2 = 0.1367	0.499	–
[2], x2 = 0.1916	0.651	–
[2], x2 = 0.2446	0.779	–
[2], x2 = 0.2982	0.884	–
[2], x2 = 0.3481	0.962	–
[2], x2 = 0.3959	1.02	–
[2], x2 = 0.4256	1.05	–
[2], x2 = 0.4407	1.05	–
[2], x2 = 0.4767	1.06	–
[2], x2 = 0.5375	1.06	–
[2], x2 = 0.6052	1.03	–
[2], x2 = 0.6813	0.941	–
[2], x2 = 0.7629	0.789	–
[2], x2 = 0.8494	0.566	–
[2], x2 = 0.9353	0.302	–

CCCCC(=O)OC [methyl pentanoate]
Conditions	mass density [kg/m3]	refractive index
[3]	884.84	–
[4]	–	1.3968

CCCCCCCC [octane] + CCCCC(=O)OC
Conditions	mass density [kg/m3]
[1], x1 = 1	698.58

CCCCCCCC [octane]
Conditions	mass density [kg/m3]	refractive index
[3]	698.58	–
[4]	–	1.3952

CC(C)CC(C)(C)C [2,2,4-trimethylpentane] + CCCCC(=O)OC
Conditions	mass density [kg/m3]
[1], x1 = 1	687.75

CCCC(=O)OC [methyl butanoate] + COC(C)=O
Conditions	excess molar enthalpy, [2] [kJ/mol]	mass density, [1] [kg/m3]
x1 = 0.0106	–	926.21
x1 = 0.027	0.022	–
x1 = 0.0564	–	923.86
x1 = 0.0962	0.053	–
x1 = 0.1023	–	921.52
x1 = 0.1361	–	919.91
x1 = 0.1645	0.083	–
x1 = 0.203	–	916.91
x1 = 0.226	0.102	–
x1 = 0.2536	–	914.74
x1 = 0.2888	0.12	–
x1 = 0.3054	–	912.64
x1 = 0.3478	0.135	–
x1 = 0.4002	0.143	–
x1 = 0.4122	–	908.65
x1 = 0.4437	0.149	–
x1 = 0.4511	–	907.3
x1 = 0.4822	0.151	–
x1 = 0.5276	0.149	–
x1 = 0.5456	–	904.19
x1 = 0.5725	0.146	–
x1 = 0.5906	–	902.8
x1 = 0.6148	–	902.08
x1 = 0.6268	0.138	–
x1 = 0.6958	0.122	899.76
x1 = 0.7394	–	898.57
x1 = 0.7669	0.1	–
x1 = 0.7873	–	897.29
x1 = 0.8368	–	896.07
x1 = 0.8497	0.069	–
x1 = 0.8884	–	894.85
x1 = 0.9313	0.036	–
x1 = 0.9538	–	893.32
x1 = 0.974	–	892.87
x1 = 1	–	892.34

CCCCC(=O)OC [methyl pentanoate] + COC(C)=O
Conditions	excess molar enthalpy [kJ/mol]	mass density [kg/m3]
[1], x1 = 0.0496	–	922.92
[1], x1 = 0.1001	–	919.44
[1], x1 = 0.1536	–	916.04
[1], x1 = 0.2027	–	913.18
[1], x1 = 0.2511	–	910.53
[1], x1 = 0.3522	–	905.55
[1], x1 = 0.4013	–	903.35
[1], x1 = 0.4497	–	901.35
[1], x1 = 0.4935	–	899.62
[1], x1 = 0.5444	–	897.75
[1], x1 = 0.5935	–	896.01
[1], x1 = 0.6563	–	893.98
[1], x1 = 0.7383	–	891.47
[1], x1 = 0.7902	–	890.02
[1], x1 = 0.843	–	888.62
[1], x1 = 0.8918	–	887.4
[1], x1 = 0.9372	–	886.3
[1], x1 = 1	–	884.84
[2], x1 = 0.0539	0.05	–
[2], x1 = 0.113	0.096	–
[2], x1 = 0.1716	0.135	–
[2], x1 = 0.2347	0.173	–
[2], x1 = 0.2915	0.198	–
[2], x1 = 0.344	0.218	–
[2], x1 = 0.3954	0.231	–
[2], x1 = 0.4441	0.239	–
[2], x1 = 0.5055	0.238	–
[2], x1 = 0.5754	0.228	–
[2], x1 = 0.6517	0.212	–
[2], x1 = 0.7339	0.178	–
[2], x1 = 0.8188	0.126	–
[2], x1 = 0.9036	0.075	–

CCCCCCCC [octane] + COC(C)=O
Conditions	mass density [kg/m3]
[1], x1 = 1	698.58

COC(C)=O [methyl ethanoate] + CCCCCCCC
Conditions	excess molar enthalpy [kJ/mol]	mass density [kg/m3]
[1], x2 = 0	–	927.16
[1], x2 = 0.0493	–	901.46
[1], x2 = 0.1011	–	878.04
[1], x2 = 0.1517	–	857.91
[1], x2 = 0.2033	–	839.55
[1], x2 = 0.253	–	823.66
[1], x2 = 0.3008	–	809.86
[1], x2 = 0.3471	–	797.79
[1], x2 = 0.3946	–	786.15
[1], x2 = 0.4523	–	773.45
[1], x2 = 0.4951	–	764.76
[1], x2 = 0.5307	–	758.11
[1], x2 = 0.5777	–	749.93
[1], x2 = 0.5898	–	747.92
[1], x2 = 0.6146	–	743.98
[1], x2 = 0.6388	–	740.27
[1], x2 = 0.6699	–	735.52
[1], x2 = 0.7238	–	728.1
[1], x2 = 0.7841	–	720.49
[1], x2 = 0.8333	–	714.64
[1], x2 = 0.8887	–	708.75
[1], x2 = 0.9311	–	704.69
[1], x2 = 0.9585	–	702.21
[2], x2 = 0.0466	0.415	–
[2], x2 = 0.1009	0.813	–
[2], x2 = 0.1504	1.14	–
[2], x2 = 0.2057	1.42	–
[2], x2 = 0.258	1.63	–
[2], x2 = 0.3043	1.79	–
[2], x2 = 0.3516	1.91	–
[2], x2 = 0.3642	1.94	–
[2], x2 = 0.3999	2	–
[2], x2 = 0.446	2.04	–
[2], x2 = 0.5006	2.04	–
[2], x2 = 0.5742	1.96	–
[2], x2 = 0.6631	1.74	–
[2], x2 = 0.7615	1.38	–
[2], x2 = 0.8485	0.945	–
[2], x2 = 0.9324	0.448	–

CC(C)CC(C)(C)C [2,2,4-trimethylpentane]
Conditions	mass density [kg/m3]	refractive index
[3]	687.75	–
[4]	–	1.389
